Legend:
[1] = tested on: Karpas 299 xenograft tumor; assay: Anticancer efficacy of Apt-NMed in vivo; set-up: species or system mouse; conditions: post first dose treatment
Procedure: Mice NOD.Cg-Prkdc^scid Il2rg^tmlWjl/SzJ (NOD SCID), 4-6-weeks old, were used to develop xenograft tumor models by subcutaneously injecting 6×10^6 cultured CD30-expressing lymphoma cells (Karpas 299) (in 100 μL of PBS buffer) into mice on the back. Dorsal tumor nodules were allowed to grow to a volume of ˜4 mm^3 before treatment initiation. Tumor-bearing mice were randomly assigned to three groups (with six mice in each group) as follows: (i) group administered with 0.25 mg Apt-NMed carrying […] to each mouse; (ii) group administered 20 μg free DOX to each mouse, and (iii) untreated group. Drugs were injected through tail veins every other day, and the treatment was continued for four weeks. Tumor length and width were measured with calipers weekly for each mouse. Tumor volume was calculated using the following equation:
Tumor Volume=Length×Width^2×0.52
(§1) The body weight of each mouse was also measured weekly to monitor potential drug toxicity. Mice were euthanized when tumor volume exceeded 2,000 mm^3.

[2] = Body weight of tumor-bearing mice during treatment; assay type: in vivo, mouse
Procedure: as §1

SMILES: COc1cccc2c1C(=O)c1c(O)c3c(c(O)c1C2=O)C[C@@](O)(C(=O)CO)C[C@@H]3O[C@H]1C[C@H](N)[C@H](O)[C@H](C)O1 [free DOX, doxorubicin]
- day at which the last mouse died [1]: 38 days
- body weight loss ([2]; day 35, 20 μg/mouse): 20%
- change in mice body weight ([2]; during treatment): considerable decrease
